Measurements reported in US8324390B2, “Tetrazole-substituted anthranilamides as pesticides” (Bayer CropScience AG, priority 2008, dated 2012).
Like-named read-outs stand apart in the source and are kept apart here.

Experiments:
[1] = system: larvae of the mustard beetle (Phaedon cochleariae); experiment: Phaedon test (PHAECO spray treatment); details: Phaedon cochleariae, in Brassica rapa, foliar, read-out: effect in % (beetle larvae killed)
[2] = system: green peach aphid (Myzus persicae); experiment: Myzus test (MYZUPE spray treatment); format: in vivo; details: Myzus persicae, foliar, read-out: effect in % (aphids killed)
Description: Solvent: 78 parts by weight of acetone
(§1) Solvent: 78.0 parts by weight of acetone

[3] = system: caterpillars of the armyworm (Spodoptera frugiperda); experiment: Spodoptera frugiperda test (SPODFR spray treatment); format: in vivo; details: Spodoptera frugiperda, foliar, read-out: effect in % (caterpillars killed)
Description: as §1

[4] = log P determination by HPLC (EEC Directive 79/831 Annex V.A8); format: physicochemical
Experimental: The measurements were carried out using an Agilent 1100 LC system with a 50*4.6 Zorbax Eclipse C18 1.8 μm column (oven temperature 55° C., flow rate 2.0 ml/min).
The following mobile phases were used:
Mobile phase A: acetonitrile+1000 μl of formic acid/l
Mobile phase B: Millipore water+900 μl of formic acid/l

[5] = application rate 100 g/ha, Chinese cabbage leaf discs
[6] = application rate 100 g/ha, maize leaf discs
[7] = reversed-phase HPLC, Zorbax Eclipse C18 column, determined by HPLC according to EEC Directive 79/831 Annex V.A8, read-out: log P
[8] = reversed-phase HPLC, Zorbax Eclipse C18 column, by HPLC according to EEC Directive 79/831 Annex V.A8, read-out: log P

| Compound | pest or weed control at 100 g/ha [1] [%] | pest or weed control at 100 g/ha [2, 5] [%] | pest or weed control at 100 g/ha [3, 6] [%] | chromatographic logP [4, 7] | pest or weed control at 100 g/ha ([2]; in Brassica rapa) [%] | pest or weed control at 100 g/ha ([3]; in Zea mays) [%] | chromatographic logP ([4]; log P) | chromatographic logP [4, 8] |
| --- | --- | --- | --- | --- | --- | --- | --- | --- |
| Cc1cc(Br)cc(C(=O)NC(C)C)c1NC(=O)c1cc(Cn2nnnc2C(F)(F)F)nn1-c1ncccc1C(F)(F)F [Example 459] | ≥ 80 | ≥ 80 | ≥ 80 | 3.29 |  |  |  |  |
| CNC(=O)c1cc(C#N)cc(C)c1NC(=O)c1cc(Cn2nnnc2C(F)(F)C(F)(F)F)nn1-c1ncccc1Cl [Example 444] | ≥ 80 |  |  |  | ≥ 80 | ≥ 80 | 2.73 |  |
| Cc1cc(Br)cc(C(=O)NC2CC2)c1NC(=O)c1cc(Cn2nnc(C(F)F)n2)nn1-c1ncccc1Cl [Example 298] | ≥ 80 |  |  |  | ≥ 80 | ≥ 80 | 2.85 |  |
| Cc1cc(C#N)cc(C(=O)NC(C)(C)C)c1NC(=O)c1cc(Cn2nnnc2C(F)(F)F)nn1-c1ncccc1Br [Example 483] | ≥ 80 | ≥ 80 | ≥ 80 | 3.07 |  |  |  |  |
| CCNC(=O)c1cc(C#N)cc(C)c1NC(=O)c1cc(Cn2nnc(C(F)(F)F)n2)nn1-c1ncccc1Br [Example 322] | ≥ 80 | ≥ 80 | ≥ 80 |  |  |  |  | 2.88 |
| COCCNC(=O)c1cc(C#N)cc(C)c1NC(=O)c1cc(Cn2nnc(C(F)(F)F)n2)nn1-c1ccccc1Cl [Example 435] | ≥ 80 | ≥ 80 | ≥ 80 | 3.18 |  |  |  |  |
| CSC[C@H](C)NC(=O)c1cc(I)cc(C)c1NC(=O)c1cc(Cn2nnc(C(F)(C(F)(F)F)C(F)(F)F)n2)nn1-c1ncccc1Cl [Example 385] | ≥ 80 | ≥ 80 | ≥ 80 |  |  |  |  | 4.63 |
| Cc1cc(Br)cc(C(N)=O)c1NC(=O)c1cc(Cn2nnc(C(F)(F)F)n2)nn1-c1ncccc1Cl [Example 44] | ≥ 80 |  |  |  | ≥ 80 | ≥ 80 | 2.81 |  |
| COCC(C)NC(=O)c1cc(C#N)cc(C)c1NC(=O)c1cc(Cn2nnc(C(F)(F)F)n2)nn1-c1ncccc1Cl (stereo not drawn) [Example 98] | ≥ 80 |  |  |  | ≥ 80 | ≥ 80 | 2.95 |  |
| Cc1cc(F)cc(C(=O)NC(C)(C)C)c1NC(=O)c1cc(Cn2nnc(C(F)(F)C(F)(F)F)n2)nn1-c1ncccc1Cl [Example 221] | ≥ 80 |  |  |  | ≥ 80 | ≥ 80 | 3.88 |  |
| N#CCNC(=O)c1cc(Cl)cc(Cl)c1NC(=O)c1cc(Cn2nnc(C(F)F)n2)nn1-c1ncccc1Cl [Example 290] | ≥ 80 |  |  |  | ≥ 80 | ≥ 80 | 2.48 |  |
| CC(NC(=O)c1cc(Cl)cc(Cl)c1NC(=O)c1cc(Cn2nnnc2C(F)(F)C(F)(F)F)nn1-c1ncccc1Cl)C1CC1 (stereo not drawn) [Example 448] | ≥ 80 |  |  |  | ≥ 80 | ≥ 80 | 3.81 |  |
| Cc1cc(I)cc(C(N)=O)c1NC(=O)c1cc(Cn2nnc(C(F)(F)F)n2)nn1-c1ncccc1Br [Example 351] | ≥ 80 | ≥ 80 | ≥ 80 |  |  |  |  | 2.95 |
| Cc1cc(F)cc(C(=O)NCC#N)c1NC(=O)c1cc(Cn2nnc(C(F)(F)F)n2)nn1-c1ncccc1Cl [Example 53] | ≥ 80 |  |  |  | ≥ 80 | ≥ 80 | 2.67 |  |
| C#CC(C)NC(=O)c1cc(C#N)cc(C)c1NC(=O)c1cc(Cn2nnc(C(F)(F)F)n2)nn1-c1ncccc1Cl (stereo not drawn) [Example 432] | ≥ 80 |  |  |  | ≥ 80 | ≥ 80 | 2.97 |  |
